Measurements taken from patent publication US20100093804A1, “NOVEL CRYSTALLINE FORM OF LANSOPRAZOLE” (HETERO DRUGS LIMITED, priority 2006, published 2010).
Like-named read-outs stand apart in the source and are kept apart here. Blank lines part the entries; values can stand above or below the compound they belong to.

Legend:
[1] = solid-solid transition to form A; cited from earlier work
[2] = cited from earlier work
[3] = stability of the crystalline form over time; format: physicochemical

SMILES: Cc1c(OCC(F)(F)F)ccnc1C[S+]([O-])c1nc2ccccc2[nH]1 (stereo not shown) [crystalline lansoprazole form B, 2-[[[3-Methyl-4-(2,2,2-trifluoro-ethoxy)-2-pyridinyl]methyl]sulfinyl]-1H-benzimidazole]
stability of crystalline form [1]: unstable

SMILES: Cc1c(OCC(F)(F)F)ccnc1C[S+]([O-])c1nc2ccccc2[nH]1 (stereo not shown) [lansoprazole crystalline form II, 2-[[[3-Methyl-4-(2,2,2-trifluoro-ethoxy)-2-pyridinyl]methyl]sulfinyl]-1H-benzimidazole]
stability of crystalline form on storage ([2]; after some period of sample storage at higher temperatures): converted to stable crystalline form I | stability of crystalline form ([2]; at temperatures below 0° C.): stable

stability of crystalline form [3]: stable
SMILES: Cc1c(OCC(F)(F)F)ccnc1C[S+]([O-])c1nc2ccccc2[nH]1 (stereo not shown) [lansoprazole form III, 2-[[[3-Methyl-4-(2,2,2-trifluoro-ethoxy)-2-pyridinyl]methyl]sulfinyl]-1H-benzimidazole]
